Test results from patent US9232796B2, “Herbicidal compositions comprising 4-amino-3-chloro-5-fluoro-6-(4-chloro-2-fluoro-3-methoxyphenyl) pyridine-2-carboxylic acid or a derivative thereof and acetyl-CoA carboxylase (ACCase) inhibitors” (DOW AGROSCIENCES LLC, priority 2012, dated 2016).

Experiments:
ECHCG [1] = experiment: Example VI in-water applied ternary mixtures, greenhouse, transplanted paddy rice weeds; format: in vivo, Echinochloa crus-galli (L.) Beauv.
Experimental: (§1) Weed seeds or nutlets of the desired test plant species were planted in puddled soil (mud) prepared by mixing a shredded, non-sterilized mineral soil (50.5 percent silt, 25.5 percent clay, and 24 percent sand, with a pH of about 7.6 and an organic matter content of about 2.9 percent) and water at a 1:1 volumetric ratio. The prepared mud was dispensed in 365 mL aliquots into 16-ounce (oz.) non-perforated plastic pots with a surface area of 86.59 square centimeters (cm^2) leaving a headspace of 3 centimeters (cm) in each pot. Mud was allowed to dry overnight prior to planting or transplanting. Rice seeds were planted in Sun Gro MetroMix® 306 planting mixture, which typically has a pH of 6.0 to 6.8 and an organic matter content of about 30 percent, in plastic plug trays. Seedlings at the second or third leaf stage of growth were transplanted into 860 mL of mud contained in 32-oz. non-perforated plastic pots with a surface area of 86.59 cm^2 4 days prior to herbicide application. The paddy was created by filling the headspace of the pots with 2.5 to 3 cm of water. When required to ensure good germination and healthy plants, a fungicide treatment and/or other chemical or physical treatment was applied. The plants were grown for 4-22 days in a greenhouse with an approximate 14 hr. photoperiod which was maintained at about 29° C. during the day and 26° C. during the night. Nutrients were added as Osmocote® (19:6:12, N:P:K+minor nutrients) at 2 g per 16-oz. pot and 4 g per 32-oz. pot. Water was added on a regular basis to maintain the paddy flood, and supplemental lighting was provided with overhead metal halide 1000-Watt lamps as necessary. The plants were employed for testing when they reached the first through fourth true leaf stage.
(§2) Treatments consisted of the benzyl ester of 4-amino-3-chloro-5-fluoro-6-(4-chloro-2-fluoro-3-methoxy-phenyl)pyridine-2-carboxylic acid (Compound A), formulated as an SC (suspension concentrate), an ACCase inhibitor herbicide, and a third herbicidal component, each applied alone and in ternary combination. Forms of compound A were applied on an acid equivalent basis.
(§3) The ACCase inhibitor component was applied on an active ingredient basis and included cyhalofop-R-butyl formulated as Clincher® G and metamifop formulated as Metamifop EC. Other herbicidal components were applied on an active ingredient or acid equivalent basis depending on the compound and included penoxsulam formulated as Grasp® SC, bentazon sodium formulated as Basagran®, triclopyr […] (TEA) salt formulated as Grandstand® R, benzobicyclon formulated as Benzobicyclon, benfuresate formulated as Full Slot® WG, pyraclonil formulated as Pyraclon® Flowable, mefenacet (technical grade material), and pretilachlor (technical grade material).
(§4) Treatment requirements for each compound or herbicidal component were calculated based upon the rates being tested, the concentration of active ingredient or acid equivalent in the formulation, an application volume of 1 mL per component per pot, and an application area of 86.59 cm^2 per pot.
(§5) For formulated compounds, a measured amount was placed in an individual 100 or 200 mL glass vial and was dissolved in a volume of 1.25% (v/v) Agri-Dex® crop oil concentrate to obtain application solutions.
(§6) For technical grade compounds, a weighed amount was placed in an individual 100 to 200 mL glass vial and was dissolved in a volume of acetone to obtain concentrated stock solutions.
(§7) Applications were made by injecting with a pipetter appropriate amounts of the application solutions, into the aqueous layer of the paddy. Control plants were treated in the same manner with the solvent blank. Applications were made so that all treated plant material received the same concentrations of acetone and crop oil concentrate.
(§8) The treated plants and control plants were placed in a greenhouse as described above and water was added as needed to maintain a paddy flood. […]

FIMMI = experiment: as above; format: in vivo, Fimbristylis miliacea (L.) Vahl
Experimental: as §1, §2, §3, §4, §5, §6, §7, §8

IPOHE = experiment: Example V (second) postemergence foliar-applied ternary mixtures, greenhouse, direct seeded rice weeds; format: in vivo, Ipomoea hederacea Jacq.
Experimental: (§9) The treated plants and control plants were placed in a greenhouse as described above and watered by sub-irrigation to prevent wash-off of the test compounds. After approximately 3 weeks, the condition of the test plants as compared with that of the untreated plants was determined visually and scored on a scale of 0 to 100 percent where 0 corresponds to no injury or growth inhibition and 100 corresponds to complete kill.
Colby's equation was used to determine the herbicidal effects expected from the mixtures (Colby, S. R. 1967. Calculation of the synergistic and antagonistic response of herbicide combinations. Weeds 15:20-22.).
The following equation was used to calculate the expected activity of mixtures containing three active ingredients, A, B, and C: Expected=A+B+C−((A×B+A×C+B×C)/100)+(A×B×C/10000)

ECHCG [2] = experiment: as above; format: in vivo, Echinochloa crus-galli (L.) Beauv.; settings: 200 gai/ha
Text: Seeds or nutlets of the desired test plant species were planted in a soil matrix prepared by mixing a sandy loam or loam soil (e.g., 32 percent silt, 23 percent clay, and 45 percent sand, with a pH of about 6.5 and an organic matter content of about 1.9 percent) and calcareous grit in an 80 to 20 ratio. The soil matrix was contained in plastic pots with a volume of 1 quart and a surface area of 83.6 square centimeters (cm^2). When required to ensure good germination and healthy plants, a fungicide treatment and/or other chemical or physical treatment was applied. The plants were grown for 8-22 days in a greenhouse with an approximate 14 hr. photoperiod which was maintained at about 29° C. during the day and 26° C. during the night. Nutrients (Peters Excel® 15-5-15 5-Ca 2-Mg and iron chelate) were applied in the irrigation solution as needed and water was added on a regular basis. Supplemental lighting was provided with overhead metal halide 1000-Watt lamps as necessary. The plants were employed for testing when they reached the first through fourth true leaf stage.
as §2, with “inhibitor,” for “inhibitor herbicide,”
The ACCase inhibitor component was applied on an active ingredient basis and included cyhalofop-R-butyl formulated as Clincher® SF, fenoxaprop-p-ethyl formulated as RiceStar® HT, and profoxydim formulated as Aura® 20EC. Other herbicidal components were applied on an active ingredient or acid equivalent basis depending on the compound and included penoxsulam formulated as Grasp® SC, bentazon sodium formulated as Basagran®, triclopyr […] (TEA) salt formulated as Grandstand® R, bispyribac sodium formulated as Regiment® 80WP, imazamox ammonium formulated as Beyond®, benzobicyclon, quinclorac formulated as Facet® 75DF, glyphosate dimethylammonium (DMA) salt formulated as Durango® DMA, glufosinate ammonium formulated as Ignite® 280, fentrazamide formulated as an emulsifiable concentrate (EC), propyrisulfuron formulated as Zeta One®, and indanofan (technical grade material).
(§10) Treatment requirements were calculated based upon the rates being tested, the concentration of active ingredient or acid equivalent in the formulation, and a 12 mL application volume at a rate of 187 L/ha.
(§11) For treatments comprised of formulated compounds, measured amounts of compounds were placed individually in 25 mL glass vials and diluted in a volume of 1.25% (v/v) Agri-Dex® crop oil concentrate to obtain 12× stock solutions. […] Application solutions were prepared by adding an appropriate amount of each stock solution (e.g., 1 mL) and diluted to the appropriate final concentrations with the addition of 9 mL of an aqueous mixture of 1.25% (v/v) crop oil concentrate so that the final spray solutions contained 1.25% (v/v) crop oil concentrate.
As required, additional water and/or 97:3 v/v acetone/DMSO was added to individual application solutions so that the final acetone and DMSO concentrations of the application solutions being compared were 8.1% and 0.25%, respectively.
All stock solutions and applications solutions were visually inspected for compound compatibility prior to application. Spray solutions were applied to the plant material with an overhead Mandel track sprayer equipped with a 8002E nozzles calibrated to deliver 187 L/ha over an application area of 0.503 m^2 at a spray height of 18 inches (46 cm) above average plant canopy height. Control plants were sprayed in the same manner with the solvent blank.
The treated plants and control plants were placed in a greenhouse as described above and watered by sub-irrigation to prevent wash-off of the test compounds. […]

CYPIR = experiment: Example I postemergence foliar-applied, greenhouse, direct seeded rice weeds; format: in vivo, Cyperus iria L.
Text: Seeds or nutlets of the desired test plant species were planted in a soil matrix prepared by mixing a loam or sandy loam soil (e.g., 28.6 percent silt, 18.8 percent clay, and 52.6 percent sand, with a pH of about 5.8 and an organic matter content of about 1.8 percent) and calcareous grit in an 80 to 20 ratio. The soil matrix was contained in plastic pots with a volume of 1 quart and a surface area of 83.6 square centimeters (cm^2). When required to ensure good germination and healthy plants, a fungicide treatment and/or other chemical or physical treatment was applied. The plants were grown for 8-22 days in a greenhouse with an approximate 14 hr. photoperiod which was maintained at about 29° C. during the day and 26° C. during the night. Nutrients (Peters Excel® 15-5-15 5-Ca 2-Mg and iron chelate) were applied in the irrigation solution as needed and water was added on a regular basis. Supplemental lighting was provided with overhead metal halide 1000-Watt lamps as necessary. The plants were employed for testing when they reached the first through fourth true leaf stage.
Treatments consisted of the acid or esters of 4-amino-3-chloro-5-fluoro-6-(4-chloro-2-fluoro-3-methoxy-phenyl)pyridine-2-carboxylic acid (Compound A), each formulated as an SC (suspension concentrate), and various herbicidal components alone and in combination.
Other herbicidal components were applied on an acid equivalent (ae) or active ingredient (ai) basis and included acetyl coA carboxylase (ACCase)-inhibiting herbicides (cyclohexanedione and aryloxyphenoxypropionate chemical classes) cyhalofop-butyl formulated as Clincher® SF (285 gr ai/L EC), diclofop-methyl formulated as Hoelon® 3EC, fenoxaprop-p-ethyl+isoxadifen-ethyl formulated as RiceStar® HT (0.58 lb./gal EC), fenoxaprop-p-ethyl+mefenpyr diethyl formulated as Puma® IEC, metamifop formulated as Metamifop EC, haloxyfop-methyl formulated as Gallant Super®, fluazifop-p-butyl formulated as Fusilade® DX, quizalofop-p-ethyl formulated as Assure® II, profoxydim formulated as Aura® 20EC, clethodim applied as Intensity®, sethoxydim formulated as Poast®, and tralkoxydim formulated as Achieve®.
as §10
as §11, with “crop oil concentrated to obtain” for “crop oil concentrate to obtain”, “addition of 10 mL of” for “addition of 9 mL of”, “solutions contained 1.25+/−0.05% (v/v) crop” for “solutions contained 1.25% (v/v) crop”
All stock solutions and applications solutions were visually inspected for compound compatibility prior to application. Spray solutions were applied to the plant material with an overhead Mandel track sprayer equipped with a 8002E nozzles calibrated to deliver 187 L/ha over an application area of 0.503 m^2 at a spray height of 18 to 20 inches (46 to 50 cm) above average plant canopy height. Control plants were sprayed in the same manner with the solvent blank.
as §9, with “kill. […]” for “kill.”

CYPRO = experiment: Example VI in-water applied ternary mixtures, greenhouse, transplanted paddy rice weeds; format: in vivo, Cyperus rotundus L.; settings: 21 DAA
Experimental: as §1, §2, §3, §4, §5, §6, §7, §8

Compound: CCS(=O)(=O)Oc1ccc2c(c1)C(C)(C)CO2 [Benfuresate]
- Visual Weed Control (%) - 21 DAA ECHCG Obs (ECHCG [1]; 150 gai/ha): 0%

Compound: CC(C)N1C(=O)c2ccccc2NS1(=O)=O [Bentazon Sodium]
- Visual Weed Control (%) - 21 DAA ECHCG Obs (ECHCG [1]; 210 gae/ha, first set): 0%
- Visual Weed Control (%) - 21 DAA ECHCG Obs (ECHCG [1]; 420 gae/ha, second set): 15%
- Visual Weed Control (%) - 21 DAA FIMMI Obs (FIMMI; 210 gae/ha, first set): 17%
- Visual Weed Control (%) - 21 DAA FIMMI Obs (FIMMI; 420 gae/ha, second set): 30%

Compound: CC(C)N1C(=O)c2ccccc2NS1(=O)=O [Bentazon sodium]
- Visual Weed Control (%) - 21 DAA IPOHE Obs (IPOHE; 420 gae/ha, lower sub-table): 75%
- Visual Weed Control (%) - 21 DAA IPOHE Obs (IPOHE; 420 gae/ha, upper sub-table): 53%

Compound: CS(=O)(=O)c1ccc(C(=O)C2=C(Sc3ccccc3)C3CCC(C3)C2=O)c(Cl)c1 (stereo not shown) [Benzobicyclon]
- Visual Weed Control (%) - 21 DAA ECHCG Obs (ECHCG [2]): 0%
- Visual Weed Control (%) - 21 DAA IPOHE Obs (IPOHE; 200 gai/ha): 55%

Compound: COC(=O)C(C)Oc1ccc(Oc2ccc(Cl)cc2Cl)cc1 (stereo not shown) [Diclofop-methyl, methyl 2-[4-(2,4-dichlorophenoxy)phenoxy]propanoate]
- Visual Weed Control (%) - 22 DAA CYPIR Obs (CYPIR; 280 gai/ha): 0%
- Visual Weed Control (%) - 22 DAA CYPIR Obs (CYPIR; 560 gai/ha): 0%
- Visual Weed Control (%) - 22 DAA CYPIR Obs (CYPIR; 1120 gai/ha): 0%

Compound: CN(C(=O)COc1nc2ccccc2s1)c1ccccc1 [Mefenacet]
- Visual Weed Control (%) - 21 DAA CYPRO Obs (CYPRO; Table 69, 75 gai/ha): 0%
- Visual Weed Control (%) - 21 DAA CYPRO Obs (CYPRO; Table 69, 150 gai/ha): 0%

Compound: CCCOCCN(C(=O)CCl)c1c(CC)cccc1CC [Pretilachlor]
- Visual Weed Control (%) - 21 DAA CYPRO Obs (CYPRO; Table 70, 25 gai/ha): 0%
- Visual Weed Control (%) - 21 DAA CYPRO Obs (CYPRO; Table 70, 50 gai/ha): 0%
